From US20110135671A1, “PURINE DERIVATIVES FOR USE IN THE TREATMENT OF ALLERGIC, INFLAMMATORY AND INFECTIOUS DISEASES” (GLAXOSMITHKLINE LLC, priority 2008, published 2011) come the findings set out here.

What all share (assay type): cell-based
In assay [1] the test system is Interferon-α. Put plainly: Induction of Interferon-α using cryopreserved human PBMCs. As to conditions: PBMC, 24 h, normalised to 1 uM resiquimod, read-out: mean pEC50 for induction of Interferon-α (converted). Here is the method:
Assay for the Induction of Interferon-α using Cryopreserved Human Peripheral Blood Mononuclear Cells (PBMCs)
Compounds were dissolved in DMSO. Serial 2-fold dilutions with DMSO were prepared and 0.25 μl dispensed into 384-well clear Greiner polypropylene plates.
Blood samples of up to 200 ml were obtained from healthy human donors. Whole blood in 25 ml volumes was overlaid onto 15 ml Ficoll gradients in Leucosep tubes, and centrifuged at 1000 g for 20 min. Cells in the band at the plasma/histopaque interface were carefully removed and washed twice with PBS (centrifuged at 400 g for 5 min to harvest). The final pellet was resuspended in freezing medium (90% Heat-inactivated serum, 10% DMSO) to a cell concentration of 4×10^7 cells/ml. The resuspended cells were then cryopreserved (frozen) using a rate controlled freezer, and stored at −140° C. for up to 4 months.
Incubation and Assay for Interferon-α
Immediately prior to assay, vials of cryopreserved (frozen) PBMCs were thawed rapidly in a water bath at 37° C. A 1:10 dilution of the cells in trypan blue was prepared and counted. The PBMCs were then diluted in growth media [RPMI 1640 containing 10% fetal calf serum (invitrogen), Penicillin+Streptavidin (Gibco cat. # 25030-024, 1:50), L-Glutamine 2 mM, and 1000 units/ml recombinant human IFN-gamma (Preprotech catalogue #300-02)] to a density of 1×10^6 cells/ml, and 50 ul/well dispensed to 384-well clear Greiner polypropylene plates containing 0.25 μl DMSO or test compound in 0.25 μl DMSO. […] Plates were incubated for 24 h at 37° C. in 5% CO2.
A multi-isoform immunoassay was used to quantify IFN-α in PBMC supernatants. Rabbit polyclonal antibody against human IFN-α (catalogue number 31101, Stratech Scientific) was diluted 1:10000 in assay buffer (RPMI 1640 containing 10% fetal calf serum, Invitrogen) and 20 μl was added to each well of an MSD (Meso-Scale Discovery) single small-spot 384-well GAR (goat anti-rabbit antibody coated) plate. The plate was incubated for 1 h at room temperature with vigorous shaking. Following three washes with PBS, 20 μl of cell supernatant were added to each well of the plate. The plate was then incubated for 1 h at room temperature with vigorous shaking. A pair of monoclonal antibodies to IFN-α (catalogue numbers 21100 and 21112, Stratech Scientific) were labelled with sulfo-TAG (MSD), diluted 1:1000 in assay buffer and 20 μl added to each well of the plate. The plate was further incubated for 1 h at room temperature with vigorous shaking. Following three washes with PBS, 30 μl of ×2 T buffer (MSD) was added to each well and the plate was read on an MSD Sector 6000 plate reader.
Data were normalised to internal plate controls of 1 uM resiquimod (n=16) and DMSO (n=16). pEC50 values were derived by 4-parameter curve fit with IRLS in ActivityBase, from 11-point, two-fold serial dilution of test compounds.

Assay [2] relates to Interferon-α. Put plainly: Induction of Interferon-α using fresh human PBMCs. As to conditions: PBMC, 24 hr, relative to 2 μM resiquimod control, read-out: mean pEC50 for induction of IFN-α (converted). As to the method:
(§1) Assay for the Induction of Interferon-α and TNF-α Using Fresh Human Peripheral Blood Mononuclear Cells (PBMCs)
(§2) Compounds were dissolved and serially diluted in DMSO to give 100× the required concentration range using a Biomek 2000. 1 ul of test compound was transferred into 96-well tissue culture plates using a Biomek FX. Each compound was assayed in duplicate for each donor. Each plate contained a dilution series of the TLR7/8 agonist resiquimod as standard and Column 11 contained 1 μl of 200 μM resiquimod (giving a 2 μM final concentration, used to define the approximate maximal response to resiquimod).
(§3) Blood samples from two human donors were collected into sodium heparin (10 U/ml). 25 ml volumes of whole blood were overlaid onto 15 mls Histopaque in Leucosep tubes which were centrifuged at 800 g for 20 min and the band at the plasma/histopaque interface carefully removed. The collected cells were centrifuged at 2500 rpm for 10 min and the pellet resuspended in 10 ml of media (RPMI 1640 (Low endotoxin) supplemented with 10% v/v foetal calf serum (FCS, low endotoxin) 100 U/ml penicillin G, 100 μg/ml streptomycin, 10 mM L-glutamine and 1× non-essential amino acids). A 1:20 dilution of the cells was prepared using trypan blue & the cells counted using a haemocytometer. The PBMCs were diluted to give a final concentration of 2×10^6/ml and 100 ul of this cells suspension was added to wells containing 1 μl of diluted test compound.
(§4) The cell preparations were incubated for 24 hr (37° C., 95% air, 5% CO2) after which a sample of the supernatant was removed using the Biomek FX and assayed for both IFN-α and TNF-α using the MSD (Mesoscale Discovery) electrochemiluminescence assay platform. The IFN-α assay was carried out similarly to that described above. The TNF-α assay was carried out as per kit instructions (Cat No K111 BHB).
(§5) Cytokine released was expressed as a percentage of the 2 μM resiquimod control (column 11). This percentage was plotted against compound concentration and the pEC50 for the response determined by non-linear least squares curve fitting. For the IFN-α responses generally a 4 parameter logistic model was selected. For the TNF responses where a clear maximum response was obtained (i.e. a well defined plateau in the response was observed) then a 4 parameter model was generally used. If the upper asymptote of the curve wasn't well defined then the curve fitting was generally constrained to a maximal response of 100% (i.e., to the response to 2 μM resiquimod) or to the response of the highest concentration tested if this was greater than the resiquimod response. Some curves were bell shaped for one or both cytokines and the cytokine data on the down slope of the bell shaped response (i.e. concentrations above those giving the maximal response) were generally excluded from the fit, usually with the exception of the concentration immediately above the peak response. Curve fitting thus concentrated on the up slope of the dose response curve.

In the next assay the test system is TNF-α. Put plainly: Induction of TNF-α using fresh human PBMCs. As to conditions: PBMC, 24 hr, relative to 2 μM resiquimod control, read-out: mean pEC50 for induction of TNF-α (converted). Here is the method:
as §1, §2, §3, §4, §5

Another assay relates to IL-5. Put plainly: Allergen-driven cytokine assay using fresh human PBMCs from atopic volunteers (IL-5). As to conditions: at 0.04 μM; atopic donor PBMCs with Timothy grass antigen, up to 6 days. Here is the method:
(§6) Allergen-Driven Cytokine Assay Using Fresh Human Peripheral Blood Mononuclear Cells (PBMCs) from Atopic Volunteers
(§7) An assay based on co-culture of atopic human donor derived peripheral blood mononuclear cells (PBMCs) with allergen and test compounds was developed. After 5-6 days culture, cell supernatants were assayed for a range of cytokines.
(§8) Compounds were dissolved in DMSO, then serially diluted in growth medium (RPMI 1640 medium supplemented with 100 U/ml penicillin G, 100 μg/ml streptomycin, 10 mM L-glutamine) to give 4× the required concentration range in the presence of 0.04% DMSO. Each compound was assayed in triplicate at all concentrations.
(§9) Defibrinated human blood from volunteers known to be allergic to Timothy grass was centrifuged at 2500 rpm for 15 minutes. The upper layer of serum was collected and heat-inactivated at 56° C. for 30 minutes (HI-autologous serum). The lower layer of cells was resuspended in 50 ml PBS (+Ca +Mg), 25 ml diluted blood were overlaid onto 20 ml Lymphoprep in 50 ml tubes then centrifuged at 2500 rpm for 20 minutes at RT. The band at the serum/Lymphoprep interface was carefully removed. […]
(§10) Plates were incubated at 37° C. in 5% CO2 for up to 6 days. […] Cytokines and chemokines in supernatants were detected using Meso Scale Discovery 10 spot plates for Human TH1/Th2 cytokines.

For another assay, the system named is IL-13. Put plainly: Allergen-driven cytokine assay using fresh human PBMCs from atopic volunteers (IL-13). As to conditions: at 0.2 μM; atopic donor PBMCs with Timothy grass antigen, up to 6 days. As to the method: as §6, §7, §8, §9, §10

Where a name gives a salt, the structure may show the parent alone.

For `CCCCOc1nc(N)c2[nH]c(=O)n(CCN3CCNCC3)c2n1` [Example 1, 6-Amino-2-(butyloxy)-9-[2-(1-piperazinyl)ethyl]-7,9-dihydro-8H-purin-8-one dihydrochloride salt], the EC50 with Interferon-α [1] is less than 3.16 µM; in the assay on Interferon-α [2] it was less than 100 nM; in the assay on TNF-α, more than 3160 nM.

Take `CCCCOc1nc(N)c2[nH]c(=O)n(CCCN3CCN(C)CC3)c2n1` [Example 6, 6-Amino-2-(butyloxy)-9-[3-(4-methyl-1-piperazinyl)propyl]-7,9-dihydro-8H-purin-8-one]: the EC50 in the assay with Interferon-α [1] was less than 3.16 µM; in the assay with Interferon-α [2] it was less than 100 nM; with TNF-α, more than 3160 nM.

Regarding `CCCCOc1nc(N)c2[nH]c(=O)n(CCCCN3CCN(C)CC3)c2n1` [Example 26, 6-Amino-2-(butyloxy)-9-[4-(4-methyl-1-piperazinyl)butyl]-7,9-dihydro-8H-burin-8-one], the EC50 in the assay on Interferon-α [1] was less than 3.16 µM; in the assay on Interferon-α [2], less than 100 nM; with TNF-α, more than 3160 nM.

Turning to `CCCCOc1nc(N)c2[nH]c(=O)n(CCCCN3CCN(CC)CC3)c2n1` [Example 27, 6-Amino-2-(butyloxy)-9-[4-(4-ethyl-1-piperazinyl)butyl]-7,9-dihydro-8H-burin-8-one], the values for the EC50 in the assay with Interferon-α [1], in the assay on Interferon-α [2] and in the assay on TNF-α were less than 3.16 µM, less than 10 nM and more than 1000 nM, respectively.

For the compound `CCCCOc1nc(N)c2[nH]c(=O)n(CCCCN3CCN(C(C)C)CC3)c2n1` [Example 29, 6-Amino-2-(butyloxy)-9-{4-[4-(1-methylethyl)-1-piperazinyl]butyl}-7,9-dihydro-8H-purin-8-one], the EC50 with Interferon-α [1] is less than 3.16 µM; in the assay on Interferon-α [2], less than 10 nM; with TNF-α it was more than 1000 nM.

For `CCCCOc1nc(N)c2[nH]c(=O)n(CCCCN3CCN(C(C)(C)C)CC3)c2n1` [Example 32, 6-Amino-2-(butyloxy)-9-{4-[4-(1,1-dimethylethyl)-1-piperazinyl]butyl}-7,9-dihydro-8H-purin-8-one], the EC50 with Interferon-α [1] was less than 3.16 µM; in the assay with Interferon-α [2] it was less than 10 nM; with TNF-α, more than 1000 nM.

Regarding `CCCCNc1nc(N)c2[nH]c(=O)n(CCCCN3CCN(C(C)(C)C)CC3)c2n1` [Example 41, 6-Amino-2-(butylamino)-9-{4-[4-(1,1-dimethylethyl)-1-piperazinyl]butyl}-7,9-dihydro-8H-purin-8-one], the EC50 is less than 3.16 µM with Interferon-α [1], less than 100 nM in the assay with Interferon-α [2] and more than 3160 nM in the assay with TNF-α.

Turning to `CCCCOc1nc(N)c2[nH]c(=O)n(CCCCCN3CCN(C(C)C)CC3)c2n1` [Example 48, 6-Amino-2-(butyloxy)-9-{5-[4-(1-methylethyl)-1-piperazinyl]pentyl}-7,9-dihydro-8H-purin-8-one], the results for the EC50 in the assay with Interferon-α [1], in the assay with Interferon-α [2] and in the assay on TNF-α were less than 3.16 µM, less than 10 nM and more than 1000 nM, respectively.

With `CCC[C@H](C)Oc1nc(N)c2[nH]c(=O)n(CCCCCN3CCN(C(C)C)CC3)c2n1` [Example 52, 6-Amino-2-{[(1S)-1-methylbutyl]oxy}-9-{5-[4-(1-methylethyl)-1-piperazinyl]pentyl}-7,9-dihydro-8H-purin-8-one], the EC50 in the assay on Interferon-α [1] was less than 3.16 µM. Besides, the “reduction of IL-5 production compared to the allergen control” value with IL-5 is given as more than 50%. Also, the “reduction of IL-13 production compared to the allergen control” value in the assay on IL-13 was more than 50%.

For the compound `CCCCOc1nc(N)c2[nH]c(=O)n(CCCCCCN3CCNCC3)c2n1` [Example 54, 6-Amino-2-(butyloxy)-9-[6-(1-piperazinyl)hexyl]-7,9-dihydro-8H-purin-8-one], the EC50 was less than 3.16 µM with Interferon-α [1], less than 10 nM with Interferon-α [2] and more than 1000 nM in the assay on TNF-α.

In the case of `CCCCOc1nc(N)c2[nH]c(=O)n(CCCCCCN3CCN(C(C)(C)C)CC3)c2n1` [Example 57, 6-Amino-2-(butyloxy)-9-{6-[4-(1,1-dimethylethyl)-1-piperazinyl]hexyl}-7,9-dihydro-8H-purin-8-one], the EC50 in the assay with Interferon-α [1] was less than 3.16 µM; in the assay on Interferon-α [2], less than 1 nM; in the assay on TNF-α, more than 1000 nM.

Turning to `CCC[C@H](C)Nc1nc(N)c2[nH]c(=O)n(CCCCN3CCN(C(C)C)CC3)c2n1` [Example 75, 6-Amino-2-{[(1S)-1-methylbutyl]amino}-9-{4-[4-(1-methylethyl)-1-piperazinyl]butyl}-7,9-dihydro-8H-purin-8-one], the EC50 in the assay on Interferon-α [1] is less than 3.16 µM.
